Results published in US20210338645A1, “SOLID DISPERSION OF RIFAMYCIN-NITROIMIDAZOLE COUPLING MOLECULE AND APPLICATION THEREOF” (TenNor Therapeutics Limited, priority 2018, published 2021).
Like-named read-outs stand apart in the source and are kept apart here.

Legend:
Format in all cases: physicochemical
[1] = Approximate solubility of the coupling molecule in spray drying solvents; conditions: organic solvent or mixture, thermodynamic from solid
Procedure: In this embodiment, the solvent is firstly screened and determined: the solvent comprises one or a combination of more of methanol, ethanol, acetone, ethyl acetate, tetrahydrofuran and dichloromethane. About 10 mg of rifamycin-nitroimidazole coupling molecules are weighed into a 1.5 mL liquid phase bottle, and appropriate volumes of different solvents are added respectively to observe and judge whether the coupling molecule is completely dissolved and judge approximate solubility of the coupling molecule.

[2] = Dissolution of binary solid dispersion film in simulated gastric fluid of pH 1.2; conditions: simulated gastric fluid pH 1.2, 25° C.
Procedure: (§1) Preparation of binary solid dispersion (ASD for short): About 25 mg of rifaomycin-nitroimidazole coupling molecules and about 25 mg of carrier excipient are weighed, and placed into the same 40 mL glass bottle. The open 40 mL glass bottle is covered with perforated aluminum-foil paper to prevent cross contamination and placed into a 35° C. vacuum drying oven for rapid volatilization. After 40 hours of vacuum and full drying, the binary dispersion forms a purple film on the bottom of the bottle to obtain a binary solid dispersion film.
(§2) The prepared binary solid dispersion film is subjected to dissolution experiments: In the 40 mL glass bottle containing solid dispersion films, 0.5 mL of simulated gastric fluid of pH 1.2 and […] of acetate buffer of pH 4.5 are respectively taken as dissolution media (25° C.) (the target concentration is 50 mg ml), to seal the glass bottle and complete the vortex processing for 5 seconds; 100 μL of liquid is taken as an initial sampling point (0 minute) and then the glass bottle is shaken by a rocking bed; 100 μL of solution is taken into centrifugal tubes respectively after 10 minutes, 30 minutes, and 60 minutes, to perform the centrifugation at a rotational speed of 14000 rpm for 5 minutes; and the supernatant is taken into a small liquid phase bottle and is diluted with the acetonitrile to a suitable multiple, and high-performance liquid chromatograph is taken into the glass bottle, to record a chromatogram map and calculate the concentration according to the peak area by an external standard method.

[3] = Dissolution of binary solid dispersion film in acetate buffer of pH 4.5; conditions: for Drug Concentration: acetate buffer pH 4.5, 25° C.
Procedure: as §1, §2

[4] = Two-hour solubility of API in functional excipient solution; conditions: for Two-hour Dissolution Rate: 37° C.; for increase of two-hour dissolution rate compared to API powder control: pH 4.5 system
Procedure: In order to further increase the dissolution performance of the rifamycin-nitroimidazole coupling molecule, sodium dodecyl sulfate, meglumine, VE-TPGS or Tween 80 is respectively added in the simulated gastric fluid system of pH=1.2 or the acetate buffer system of pH=4.5, to prepare the dissolution medium containing 3 mg/mL of functional excipient. About 100 mg (or 20 mg) of rifamycin-nitroimidazole coupling molecules are weighed and put into a 1.5 ml high-performance liquid phase bottle, 1 ml of simulated gastric fluid of pH 1.2 (or acetate buffer of pH 4.5) containing functional excipient is added, and the rifamycin-nitroimidazole coupling molecules are put into a constant temperature mixing instrument at 37° C., the rotation speed is 700 rpm, and after 120 minutes, 500 μl of liquid is taken into a centrifuge tube and centrifuged at 14,000 rpm for 5 min. The supernatant liquid is centrifuged again in the same condition, and the supernatant liquid after twice centrifugation is taken into the liquid phase bottle, and diluted to a proper amount of times with acetonitrile as the solution to be tested, a high performance liquid chromatograph is injected to record a chromatogram, and the concentration is calculated by a peak area using an external standard method.

[5] = Dissolution of spray-dried solid dispersion powder in acetate buffer of pH 4.5 (target 4 mg/mL); conditions: acetate buffer pH 4.5, 37° C.
Procedure: About 344 mg of prepared solid dispersions are taken and poured into a 40 mL glass bottle; 20 mL of acetate buffer of pH 4.5 (preheated to 37° C.) is used as the dissolution medium (the target concentration of the rifaomycin-nitroimidazole coupling molecule is 4 mg/mL); the glass bottle is sealed; and the above materials are whirled for 5 seconds and placed on a heated magnetic stirrer at 37° C. after a stir bar is inserted. The rotational speed is 300 rpm. After 10 min, 20 min, 40 min, 60 min, 90 min, 120 min and 180 min, 500 μL of the liquid is taken into the centrifuge tube and centrifuged at 14000 rpm for 3 min. The supernatant liquid is taken into the liquid phase bottle and diluted to 10 times with acetonitrile as the solution to be tested, the high performance liquid chromatography is injected and the chromatogram is recorded, and the concentration is calculated by the peak area using the external standard method.

[6] = Two-hour solubility of API in functional excipient solution
[7] = acetate buffer pH 4.5, Meglumine
[8] = acetate buffer pH 4.5, no functional excipient
[9] = simulated gastric fluid pH 1.2, SLS
[10] = simulated gastric fluid pH 1.2, Tween80
[11] = simulated gastric fluid pH 1.2, VE-TPGS
[12] = simulated gastric fluid pH 1.2, no functional excipient

CO[C@H]1/C=C/O[C@@]2(C)Oc3c(C)c(O)c4c(c3C2=O)C2=NC3(CCN(CCn5c([N+](=O)[O-])cnc5C)CC3)NC2=C(NC(=O)/C(C)=C\C=C\[C@H](C)[C@H](O)[C@@H](C)[C@@H](O)[C@@H](C)[C@H](OC(C)=O)[C@@H]1C)C4=O [API]
solubility ([1]; acetone, read-out: Approximate Solubility): > 300 mg/mL
solubility ([1]; dichloromethane, read-out: Approximate Solubility): > 300 mg/mL
solubility ([1]; ethanol, read-out: Approximate Solubility): 167 to 200 mg/mL
solubility ([1]; ethyl acetate, read-out: Approximate Solubility): 167 to 200 mg/mL
solubility ([1]; methanol, read-out: Approximate Solubility): > 300 mg/mL
solubility ([1]; various common spray drying solvents, read-out: Solubility): > 100 mg/mL
solubility ([1]; tetrahydrofuran, read-out: Approximate Solubility): > 200 mg/mL
pH ([2]; dissolution medium): 2.0
Phenomenon [2]: Clear
Drug Concentration ([2]; 0 min): 10000 µg/mL
Drug Concentration ([2]; 10 min): 46400 µg/mL
Drug Concentration ([2]; 30 min): 54700 µg/mL
Drug Concentration ([2]; 60 min): 53500 µg/mL
Phenomenon ([3]; acetate buffer pH 4.5): Clear solution, incomplete dissolved film
Drug Concentration ([3]; 0 min): 10 µg/mL
Drug Concentration ([3]; 10 min): 290 µg/mL
Drug Concentration ([3]; 30 min): 340 µg/mL
Drug Concentration ([3]; 60 min): 370 µg/mL
pH ([3]; dissolution medium, acetate buffer pH 4.5): 4.5
Two-hour Dissolution Rate ([4]; 20 mg API + 1 mL acetate buffer pH 4.5, Meglumine 3 mg/mL): 0.10 mg/mL
Two-hour Dissolution Rate ([4]; 20 mg API + 1 mL acetate buffer pH 4.5, SLS 3 mg/mL): 0.06 mg/mL
Two-hour Dissolution Rate ([4]; 20 mg API + 1 mL acetate buffer pH 4.5, Tween80 3 mg/mL): 0.61 mg/mL
Two-hour Dissolution Rate ([4]; 20 mg API + 1 mL acetate buffer pH 4.5, VE-TPGS 3 mg/mL): 0.84 mg/mL
Two-hour Dissolution Rate ([4]; 20 mg API + 1 mL acetate buffer pH 4.5, no functional excipient): 0.15 mg/mL
Two-hour Dissolution Rate ([4]; 100 mg API + 1 mL simulated gastric fluid pH 1.2, SLS 3 mg/mL): 6.7 mg/mL
Two-hour Dissolution Rate ([4]; 100 mg API + 1 mL simulated gastric fluid pH 1.2, Tween80 3 mg/mL): 11.7 mg/mL
Two-hour Dissolution Rate ([4]; 100 mg API + 1 mL simulated gastric fluid pH 1.2, VE-TPGS 3 mg/mL): 11.5 mg/mL
Final pH [4, 7]: 4.91
Physical Appearance [4, 7]: Suspension
Final pH ([4]; acetate buffer pH 4.5, SLS): 4.65
Physical Appearance ([4]; acetate buffer pH 4.5, SLS): Suspension
Final pH ([4]; acetate buffer pH 4.5, Tween80): 4.46
Physical Appearance ([4]; acetate buffer pH 4.5, Tween80): Suspension
Final pH ([4]; acetate buffer pH 4.5, VE-TPGS): 4.45
Physical Appearance ([4]; acetate buffer pH 4.5, VE-TPGS): Suspension
Final pH [4, 8]: 4.45
Physical Appearance [4, 8]: Suspension
increase of two-hour dissolution rate compared to API powder control ([4]; Tween-80): 4 times
increase of two-hour dissolution rate compared to API powder control ([4]; VE-TPGS): 6 times
Final pH [4, 9]: 2.72
Physical Appearance [4, 9]: Suspension
Final pH [4, 10]: 2.60
Physical Appearance [4, 10]: Suspension
Final pH [4, 11]: 2.60
Physical Appearance [4, 11]: Suspension
Physical Appearance [4, 12]: Suspension
Phenomenon [5]: Inhomogeneous
Drug Concentration ([5]; 10 Min): 210 µg/mL
Drug Concentration ([5]; 20 Min): 170 µg/mL
Drug Concentration ([5]; 40 Min): 190 µg/mL
Drug Concentration ([5]; 60 Min): 180 µg/mL
Drug Concentration ([5]; 90 Min): 180 µg/mL
Drug Concentration ([5]; 120 Min): 180 µg/mL
Drug Concentration ([5]; 180 Min): 160 µg/mL
pH ([5]; dissolution medium): 4.47
Two-hour Dissolution Rate ([6]; 100 mg API + 1 mL simulated gastric fluid pH 1.2, no functional excipient, 37° C.): 9.8 mg/mL
Final pH [6, 12]: 2.5
